Results published in PMC5218480 (PLoS ONE, 2017).

Test system: MV-4-11 cells
Assay: Gene expression microarray analysis (Affymetrix PrimeView) and GSEA
Type: cell-based, human
Set-up: RFU PODN (11730768_x_at) / Fold change /veh PODN (11730768_x_at) / RFU LINC00158 (11744669_a_at) / Fold change /veh LINC00158 (11744669_a_at) / RFU DUSP10 (11751237_a_at) / Fold change /veh DUSP10 (11751237_a_at) / RFU ID3 (11757404_x_at) / Fold change /veh ID3 (11757404_x_at) / RFU PLEKHG5 (11737974_s_at) / Fold change /veh PLEKHG5 (11737974_s_at) / RFU LRRC4B (11730491_at) / Fold change /veh LRRC4B (11730491_at) / RFU GIMAP4 (11747438_a_at) / Fold change /veh GIMAP4 (11747438_a_at) / RFU KRT8 (11758183_x_at) / Fold change /veh KRT8 (11758183_x_at) / RFU CNN1 (11734310_a_at) / Fold change /veh CNN1 (11734310_a_at) / RFU VPS37D (11726825_at) / Fold change /veh VPS37D (11726825_at) / RFU C10orf10 (11716522_x_at) / Fold change /veh C10orf10 (11716522_x_at) / RFU KIR2DL2 /// KIR2DL4 /// KIR2DL5A /// KIR2DL5B /// KIR2DS1 /// KIR2DS2 /// KIR2DS3 /// KIR2DS4 /// KIR3DL3 /// KIR3DL3 /// KIR3DS1 (11738374_at) / Fold change /veh KIR2DL2 /// KIR2DL4 /// KIR2DL5A /// KIR2DL5B /// KIR2DS1 /// KIR2DS2 /// KIR2DS3 /// KIR2DS4 /// KIR3DL3 /// KIR3DL3 /// KIR3DS1 (11738374_at) / RFU C1QL1 (11718748_at) / Fold change /veh C1QL1 (11718748_at) / RFU TMPRSS4 (11747572_a_at) / Fold change /veh TMPRSS4 (11747572_a_at) / RFU HAMP (11756126_x_at) / Fold change /veh HAMP (11756126_x_at) / RFU RNFT2 (11725882_a_at) / Fold change /veh RNFT2 (11725882_a_at) / RFU NR4A2 (11747474_a_at) / Fold change /veh NR4A2 (11747474_a_at) / RFU ABCC12 (11746883_a_at) / Fold change /veh ABCC12 (11746883_a_at) / RFU TMEM136 (11760407_x_at) / Fold change /veh TMEM136 (11760407_x_at) / RFU CLDN22 /// WWC2 (11732394_at) / Fold change /veh CLDN22 /// WWC2 (11732394_at) / RFU HLA-DPB1 (11760878_x_at) / Fold change /veh HLA-DPB1 (11760878_x_at) / RFU SPINT1 (11716480_a_at) / Fold change /veh SPINT1 (11716480_a_at) / RFU GAP43 (11754022_s_at) / Fold change /veh GAP43 (11754022_s_at) / RFU A4GNT (11735810_at) / Fold change /veh A4GNT (11735810_at) / RFU PRB3 (11715151_x_at) / Fold change /veh PRB3 (11715151_x_at) / RFU TUBB4B (11761932_at) / Fold change /veh TUBB4B (11761932_at) / RFU CAPN14 (11732068_a_at) / Fold change /veh CAPN14 (11732068_a_at) / RFU TMCC2 (11721928_a_at) / Fold change /veh TMCC2 (11721928_a_at) / RFU IRGQ (11745062_a_at) / Fold change /veh IRGQ (11745062_a_at) / RFU FAM174B (11720279_a_at) / Fold change /veh FAM174B (11720279_a_at) / RFU TMPRSS4 (11748680_a_at) / Fold change /veh TMPRSS4 (11748680_a_at) / RFU FAM212B (11763350_a_at) / Fold change /veh FAM212B (11763350_a_at) / RFU PLEKHG5 (11743358_a_at) / Fold change /veh PLEKHG5 (11743358_a_at) / RFU ZSCAN30 (11745921_a_at) / Fold change /veh ZSCAN30 (11745921_a_at) / RFU CMKLR1 (11741424_a_at) / Fold change /veh CMKLR1 (11741424_a_at) / RFU LOC101060620 /// MAPK8IP1 (11723275_at) / Fold change /veh LOC101060620 /// MAPK8IP1 (11723275_at) / RFU SPTSSB (11747773_x_at) / Fold change /veh SPTSSB (11747773_x_at) / RFU PRSS12 (11739890_at) / Fold change /veh PRSS12 (11739890_at) / RFU BIN1 (11741810_x_at) / Fold change /veh BIN1 (11741810_x_at) / RFU WNT11 (11732464_a_at) / Fold change /veh WNT11 (11732464_a_at) / RFU C10orf10 (11716521_a_at) / Fold change /veh C10orf10 (11716521_a_at) / RFU C5orf56 (11738089_at) / Fold change /veh C5orf56 (11738089_at) / RFU CYB561 (11721691_x_at) / Fold change /veh CYB561 (11721691_x_at) / RFU ANKRD19P (11752326_a_at) / Fold change /veh ANKRD19P (11752326_a_at) / RFU OR2T12 /// OR2T33 /// OR2T8 (11738714_s_at) / Fold change /veh OR2T12 /// OR2T33 /// OR2T8 (11738714_s_at) / RFU VCAN (11748164_a_at) / Fold change /veh VCAN (11748164_a_at) / RFU JSRP1 (11732532_at) / Fold change /veh JSRP1 (11732532_at) / RFU KRTAP10-11 (11738290_x_at) / Fold change /veh KRTAP10-11 (11738290_x_at) / RFU MYO3A (11730013_a_at) / Fold change /veh MYO3A (11730013_a_at) / RFU EBF3 (11725865_a_at) / Fold change /veh EBF3 (11725865_a_at) / RFU CAMK2N1 (11719241_x_at) / Fold change /veh CAMK2N1 (11719241_x_at) / RFU C5orf56 (11738088_a_at) / Fold change /veh C5orf56 (11738088_a_at) / RFU OLFML3 (11715873_a_at) / Fold change /veh OLFML3 (11715873_a_at) / RFU LOC100653217 /// NTM (11731650_a_at) / Fold change /veh LOC100653217 /// NTM (11731650_a_at) / RFU MAPK11 (11762145_a_at) / Fold change /veh MAPK11 (11762145_a_at) / RFU FIZ1 (11724087_x_at) / Fold change /veh FIZ1 (11724087_x_at) / RFU OASL (11726364_x_at) / Fold change /veh OASL (11726364_x_at) / RFU SOX15 (11748057_x_at) / Fold change /veh SOX15 (11748057_x_at) / RFU CD79A (11719716_a_at) / Fold change /veh CD79A (11719716_a_at) / RFU HIST1H1D (11736915_at) / Fold change /veh HIST1H1D (11736915_at) / RFU CASKIN2 (11723855_a_at) / Fold change /veh CASKIN2 (11723855_a_at) / RFU LOC730098 (11760151_x_at) / Fold change /veh LOC730098 (11760151_x_at) / RFU OR4N2 (11742367_at) / Fold change /veh OR4N2 (11742367_at) / RFU PRRT2 (11749266_a_at) / Fold change /veh PRRT2 (11749266_a_at) / RFU SNX32 (11753110_a_at) / Fold change /veh SNX32 (11753110_a_at) / RFU CDHR5 (11726645_a_at) / Fold change /veh CDHR5 (11726645_a_at) / RFU RCAN1 (11760418_a_at) / Fold change /veh RCAN1 (11760418_a_at) / RFU FAM167A (11723789_a_at) / Fold change /veh FAM167A (11723789_a_at) / RFU FAM26E (11764081_at) / Fold change /veh FAM26E (11764081_at) / RFU ISYNA1 (11749810_s_at) / Fold change /veh ISYNA1 (11749810_s_at) / RFU ACY1 (11761880_at) / Fold change /veh ACY1 (11761880_at) / RFU 11764098_at / Fold change /veh 11764098_at / RFU SAMD14 (11745864_x_at) / Fold change /veh SAMD14 (11745864_x_at) / RFU NPB (11741838_a_at) / Fold change /veh NPB (11741838_a_at) / RFU TMPRSS6 (11731388_a_at) / Fold change /veh TMPRSS6 (11731388_a_at) / RFU KRTAP10-2 (11738614_at) / Fold change /veh KRTAP10-2 (11738614_at) / RFU ARHGAP8 /// PRR5-ARHGAP8 (11727945_x_at) / Fold change /veh ARHGAP8 /// PRR5-ARHGAP8 (11727945_x_at) / RFU KRTAP5-7 /// NADSYN1 (11734609_at) / Fold change /veh KRTAP5-7 /// NADSYN1 (11734609_at) / RFU RASL12 (11751679_a_at) / Fold change /veh RASL12 (11751679_a_at) / RFU CDKN2B (11736163_a_at) / Fold change /veh CDKN2B (11736163_a_at) / RFU PRF1 (11729649_at) / Fold change /veh PRF1 (11729649_at) / RFU, ZNF638 /// ZNF638-IT1 / Fold change vs veh, ZNF638 /// ZNF638-IT1 / RFU, PANK3 / Fold change vs veh, PANK3 / RFU, SH3YL1 / Fold change vs veh, SH3YL1 / RFU, ZEB2 / Fold change vs veh, ZEB2 / RFU, NRIP1 / Fold change vs veh, NRIP1 / RFU, PTTG1IP / Fold change vs veh, PTTG1IP / RFU, CAPN2 / Fold change vs veh, CAPN2 / RFU, MED14 / Fold change vs veh, MED14 / RFU, SNORA58 / Fold change vs veh, SNORA58 / RFU, C1orf63 / Fold change vs veh, C1orf63 / RFU, LRRFIP1 / Fold change vs veh, LRRFIP1 / RFU, NDUFAF7 / Fold change vs veh, NDUFAF7 / RFU, SLC12A2 / Fold change vs veh, SLC12A2 / RFU, IBTK / Fold change vs veh, IBTK / RFU, ESF1 / Fold change vs veh, ESF1 / Fold change vs veh, TMEM50B / RFU, TAOK1 / Fold change vs veh, TAOK1 / RFU, ACBD3 / Fold change vs veh, ACBD3 / RFU, TMA16 / Fold change vs veh, TMA16 / RFU, RWDD3 / Fold change vs veh, RWDD3 / RFU, BCAT1 / Fold change vs veh, BCAT1 / RFU, EDEM3 / Fold change vs veh, EDEM3 / RFU, TMEM33 / Fold change vs veh, TMEM33 / RFU, WDR75 / Fold change vs veh, WDR75 / RFU, AHCTF1 / Fold change vs veh, AHCTF1 / RFU, TFRC / Fold change vs veh, TFRC / RFU, ZDHHC17 / Fold change vs veh, ZDHHC17 / RFU, NOM1 / Fold change vs veh, NOM1 / RFU, ARL8B / Fold change vs veh, ARL8B / RFU, ZBTB11 / Fold change vs veh, ZBTB11 / RFU, TAMM41 / Fold change vs veh, TAMM41 / RFU, KIAA1704 /// LOC100996395 / Fold change vs veh, KIAA1704 /// LOC100996395 / RFU, ING1 / Fold change vs veh, ING1 / RFU, TRMT61B / Fold change vs veh, TRMT61B / RFU, FUBP3 / Fold change vs veh, FUBP3 / RFU, TP53 / Fold change vs veh, TP53 / RFU, TNKS2 / Fold change vs veh, TNKS2 / RFU, ZFP14 / Fold change vs veh, ZFP14 / RFU, ACTR2 / Fold change vs veh, ACTR2 / RFU, PPP3R1 / Fold change vs veh, PPP3R1 / RFU, PIK3R1 / Fold change vs veh, PIK3R1 / RFU, HNRNPA1 / Fold change vs veh, HNRNPA1 / RFU, RNF170 / Fold change vs veh, RNF170 / RFU, ZNF28 / Fold change vs veh, ZNF28 / RFU, RNGTT / Fold change vs veh, RNGTT / RFU, OGT / Fold change vs veh, OGT / RFU, BRD1 / Fold change vs veh, BRD1 / RFU, MARS / Fold change vs veh, MARS / RFU, ZNF655 / Fold change vs veh, ZNF655 / RFU, FAHD1 / Fold change vs veh, FAHD1 / RFU, BDP1 / Fold change vs veh, BDP1 / RFU, LRRCC1 / Fold change vs veh, LRRCC1 / RFU, ARID1A / Fold change vs veh, ARID1A / RFU, ZNF146 / Fold change vs veh, ZNF146 / RFU, ZNF330 / Fold change vs veh, ZNF330 / RFU, GPN3 / Fold change vs veh, GPN3 / RFU, C9orf123 / Fold change vs veh, C9orf123 / RFU, N4BP2L2 / Fold change vs veh, N4BP2L2 / RFU, ARFIP1 / Fold change vs veh, ARFIP1 / RFU, FAM179B / Fold change vs veh, FAM179B / RFU, BCL10 / Fold change vs veh, BCL10 / RFU, UHRF1BP1L / Fold change vs veh, UHRF1BP1L / RFU, BET1 / Fold change vs veh, BET1 / RFU, CNOT2 / Fold change vs veh, CNOT2 / RFU, ZNF268 / Fold change vs veh, ZNF268 / Fold change vs veh, ZNF507 / RFU, DGCR2 / Fold change vs veh, DGCR2 / RFU, WDSUB1 / Fold change vs veh, WDSUB1 / Fold change vs veh, HSP90B1 /// MIR3652 / RFU, ADSS / Fold change vs veh, ADSS / RFU, GK / Fold change vs veh, GK / RFU, ZNF148 / Fold change vs veh, ZNF148 / RFU, TAF9 / Fold change vs veh, TAF9 / RFU, SLC1A5 / Fold change vs veh, SLC1A5 / RFU, SLMO2 / Fold change vs veh, SLMO2 / RFU, ABCC4 / Fold change vs veh, ABCC4 / RFU, LOC101060439 /// RAP1B / Fold change vs veh, LOC101060439 /// RAP1B / RFU, RFX7 / Fold change vs veh, RFX7 / RFU, GTPBP10 / Fold change vs veh, GTPBP10 / RFU, CNEP1R1 / Fold change vs veh, CNEP1R1 / RFU, BIVM-ERCC5 /// ERCC5 / Fold change vs veh, BIVM-ERCC5 /// ERCC5 / RFU, ILF3 / Fold change vs veh, ILF3 / RFU 11762660_at / Fold change /veh 11762660_at / RFU VCAN (11757783_s_at) / Fold change /veh VCAN (11757783_s_at) / RFU DDX43 (11728927_at) / Fold change /veh DDX43 (11728927_at) / RFU KRT8 (11758188_x_at) / Fold change /veh KRT8 (11758188_x_at) / RFU NKD1 (11759106_at) / Fold change /veh NKD1 (11759106_at) / RFU SRD5A1 (11742802_a_at) / Fold change /veh SRD5A1 (11742802_a_at) / RFU TPSAB1 /// TPSB2 (11721975_s_at) / Fold change /veh TPSAB1 /// TPSB2 (11721975_s_at) / RFU GSTM3 (11746129_a_at) / Fold change /veh GSTM3 (11746129_a_at) / RFU IL23R (11737362_x_at) / Fold change /veh IL23R (11737362_x_at) / RFU TMEM51 (11727254_a_at) / Fold change /veh TMEM51 (11727254_a_at) / RFU PIWIL2 (11732686_x_at) / Fold change /veh PIWIL2 (11732686_x_at) / RFU ORM1 (11744905_x_at) / Fold change /veh ORM1 (11744905_x_at) / RFU CCDC152 (11743942_at) / Fold change /veh CCDC152 (11743942_at) / RFU ECM1 (11717891_a_at) / Fold change /veh ECM1 (11717891_a_at) / RFU IL23R (11748794_a_at) / Fold change /veh IL23R (11748794_a_at) / RFU TNFAIP8L3 (11732012_x_at) / Fold change /veh TNFAIP8L3 (11732012_x_at) / RFU MBOAT4 (11741988_at) / Fold change /veh MBOAT4 (11741988_at) / RFU 11764193_at / Fold change /veh 11764193_at / RFU TMEM53 (11763286_at) / Fold change /veh TMEM53 (11763286_at) / RFU MAGEB2 (11727129_at) / Fold change /veh MAGEB2 (11727129_at) / RFU TMEM200A (11744735_a_at) / Fold change /veh TMEM200A (11744735_a_at) / RFU CCDC152 (11751479_a_at) / Fold change /veh CCDC152 (11751479_a_at) / RFU FAM211A (11726209_a_at) / Fold change /veh FAM211A (11726209_a_at) / RFU RGS16 (11746705_a_at) / Fold change /veh RGS16 (11746705_a_at) / RFU VCAN (11755009_s_at) / Fold change /veh VCAN (11755009_s_at) / RFU RHOB (11743442_s_at) / Fold change /veh RHOB (11743442_s_at) / RFU RGS16 (11720943_a_at) / Fold change /veh RGS16 (11720943_a_at) / RFU RGS16 (11720944_at) / Fold change /veh RGS16 (11720944_at) / RFU, VPS4B / Fold change vs veh, VPS4B / RFU, CREB1 / Fold change vs veh, CREB1 / RFU, DNAJC13 / Fold change vs veh, DNAJC13 / RFU, GNAQ / Fold change vs veh, GNAQ / RFU, CDK5R1 / Fold change vs veh, CDK5R1 / RFU, ZRANB3 / Fold change vs veh, ZRANB3 / RFU, CUL4A / Fold change vs veh, CUL4A / RFU, CCNY / Fold change vs veh, CCNY / RFU, UFL1 / Fold change vs veh, UFL1 / RFU, COG3 / Fold change vs veh, COG3 / RFU, DIAPH2 / Fold change vs veh, DIAPH2 / RFU, SKA2 / Fold change vs veh, SKA2 / RFU, AFF3 / Fold change vs veh, AFF3 / RFU, LMF1 / Fold change vs veh, LMF1 / RFU, IPO11 / Fold change vs veh, IPO11 / RFU, DFFB / Fold change vs veh, DFFB / RFU, FOXP1 / Fold change vs veh, FOXP1 / RFU, CARD8 / Fold change vs veh, CARD8 / RFU, STRN3 / Fold change vs veh, STRN3 / RFU, ADK / Fold change vs veh, ADK / RFU, RASSF2 / Fold change vs veh, RASSF2 / RFU, WIPF1 / Fold change vs veh, WIPF1 / RFU, LARP1B / Fold change vs veh, LARP1B / RFU, RASA1 / Fold change vs veh, RASA1 / RFU, RB1 / Fold change vs veh, RB1 / RFU, PPFIA1 / Fold change vs veh, PPFIA1 / RFU, MAT2A / Fold change vs veh, MAT2A / RFU, CCT5 / Fold change vs veh, CCT5 / RFU, WDR92 / Fold change vs veh, WDR92 / RFU, CUX1 / Fold change vs veh, CUX1 / RFU, TTC7A / Fold change vs veh, TTC7A / RFU, TMEM135 / Fold change vs veh, TMEM135 / RFU, DEPTOR / Fold change vs veh, DEPTOR / RFU, CPM / Fold change vs veh, CPM / RFU, DNAJB6 / Fold change vs veh, DNAJB6 / RFU, CACNA2D3 / Fold change vs veh, CACNA2D3 / RFU, DTX4 / Fold change vs veh, DTX4 / RFU, TFCP2 / Fold change vs veh, TFCP2 / RFU, GMCL1 /// GMCL1P1 / Fold change vs veh, GMCL1 /// GMCL1P1 / RFU, AEBP2 / Fold change vs veh, AEBP2 / RFU, SNHG1 /// SNORD22 /// SNORD25 /// SNORD26 /// SNORD27 /// SNORD28 /// SNORD29 /// SNORD31 / Fold change vs veh, SNHG1 /// SNORD22 /// SNORD25 /// SNORD26 /// SNORD27 /// SNORD28 /// SNORD29 /// SNORD31 / Fold change (Aza/veh), C12orf56 (ProbeSet 11735607_a_at) / Fold change (ACY-1035/veh), C12orf56 (ProbeSet 11735607_a_at) / Fold change (Aza/veh), FGFR1OP (ProbeSet 11751329_s_at) / Fold change (ACY-1035/veh), FGFR1OP (ProbeSet 11751329_s_at) / Fold change (Aza/veh), VPS36 (ProbeSet 11739960_a_at) / Fold change (ACY-1035/veh), VPS36 (ProbeSet 11739960_a_at) / RFU SYPL1 (11715823_x_at) / Fold change /veh SYPL1 (11715823_x_at) / RFU IGFBP7 (11715501_s_at) / Fold change /veh IGFBP7 (11715501_s_at) / RFU REEP3 (11722064_at) / Fold change /veh REEP3 (11722064_at) / RFU IGLL1 (11728026_x_at) / Fold change /veh IGLL1 (11728026_x_at): dose or concentration left out as unconfirmed
Settings: MV-4-11 cells, 48 hours

For `Nc1ncn([C@@H]2O[C@H](CO)[C@@H](O)[C@H]2O)c(=O)n1` [azacitidine], the “Fold change /veh TMPRSS6 (11731388_a_at)” value was 1.02.
